Experimental data reported in patent US6703405B2, “Substituted 4-phenyltetrahydroisoquinolinium salts, process for their preparation, their use as a medicament, and medicament containing them” (Aventis Pharma Deutschland GmbH, priority 2001, dated 2004).
Where a name gives a salt, the structure may show the parent alone.

Target: T1, rNHE3 (Rattus norvegicus, UniProt P26433)
T1 construct: expressed in transfected cells
Experiment: recovery of intracellular pH (pHi) after acidification, BCECF fluorescence
Format: cell-based
Details: pH recovery recorded for three minutes with NHE3; bicarbonate-free conditions
Procedure: In this test, the recovery in the intracellular pH (pHi) after an acidification is ascertained, which is initiated if the NHE is capable of functioning, even under bicarbonate-free conditions. For this purpose, the pHi was determined using the pH-sensitive fluorescent dye BCECF (Calbiochem, the precursor BCECF-AM is employed). The cells were initially loaded with BCECF. The BCECF fluorescence was determined in a “Ratio Fluorescence Spectrometer” (Photon Technology International, South Brunswick, N.J., USA) at excitation wavelengths of 505 and 440 nm and an emission wavelength of 535 nm and converted into the pHi using calibration curves. The cells were incubated in NH4Cl buffer (pH 7.4) (NH4Cl buffer: 115 mM NaCl, 20 mM NH4Cl, 5 mM KCl, 1 mM CaCl2, 1 mM MgSO4, 20 mM Hepes, 5 mM glucose, 1 mg/ml BSA; a pH of 7.4 was adjusted with 1 M NaOH) even during the BCECF loading. The intracellular acidification was induced by adding 975 μl of an NH4Cl-free buffer (see below) to 25 μl aliquots of the cells incubated in NH4Cl buffer. The subsequent rate of pH recovery was recorded for two minutes with NHE1, five minutes with NHE2 and three minutes with NHE3. To calculate the inhibitory potency of the tested substances, the cells were initially investigated in buffers with which a complete or absolutely no pH recovery took place. For complete pH recovery (100%), the cells were incubated in Na^+-containing buffer (133.8 mM NaCl, 4.7 mM KCl, 1.25 mM CaCl2, 1.25 mM MgCl2, 0.97 mM Na2HPO4, 0.23 mM NaH2PO4, 5 mM Hepes, 5 mM glucose, a pH of 7.0 is adjusted with 1 M NaOH). To determine the 0% value, the cells were incubated in an Na^+-free buffer (133.8 mM choline chloride, 4.7 mM KCl, 1.25 mM CaCl2, 1.25 mM MgCl2, 0.97 mM K2HPO4, 0.23 mM KH2PO4, 5 mM Hepes, 5 mM glucose, a pH of 7.0 is adjusted with 1 M NaOH). The substances to be tested were made up in the Na^+-containing buffer. The recovery of the intracellular pH at each test concentration of a substance was expressed as a percentage of the maximum recovery. The IC50 value for the particular substance for the individual NHE subtypes was calculated from the pH recovery percentages using the Sigma-Plot program.

T1 sequence (P26433 29-831): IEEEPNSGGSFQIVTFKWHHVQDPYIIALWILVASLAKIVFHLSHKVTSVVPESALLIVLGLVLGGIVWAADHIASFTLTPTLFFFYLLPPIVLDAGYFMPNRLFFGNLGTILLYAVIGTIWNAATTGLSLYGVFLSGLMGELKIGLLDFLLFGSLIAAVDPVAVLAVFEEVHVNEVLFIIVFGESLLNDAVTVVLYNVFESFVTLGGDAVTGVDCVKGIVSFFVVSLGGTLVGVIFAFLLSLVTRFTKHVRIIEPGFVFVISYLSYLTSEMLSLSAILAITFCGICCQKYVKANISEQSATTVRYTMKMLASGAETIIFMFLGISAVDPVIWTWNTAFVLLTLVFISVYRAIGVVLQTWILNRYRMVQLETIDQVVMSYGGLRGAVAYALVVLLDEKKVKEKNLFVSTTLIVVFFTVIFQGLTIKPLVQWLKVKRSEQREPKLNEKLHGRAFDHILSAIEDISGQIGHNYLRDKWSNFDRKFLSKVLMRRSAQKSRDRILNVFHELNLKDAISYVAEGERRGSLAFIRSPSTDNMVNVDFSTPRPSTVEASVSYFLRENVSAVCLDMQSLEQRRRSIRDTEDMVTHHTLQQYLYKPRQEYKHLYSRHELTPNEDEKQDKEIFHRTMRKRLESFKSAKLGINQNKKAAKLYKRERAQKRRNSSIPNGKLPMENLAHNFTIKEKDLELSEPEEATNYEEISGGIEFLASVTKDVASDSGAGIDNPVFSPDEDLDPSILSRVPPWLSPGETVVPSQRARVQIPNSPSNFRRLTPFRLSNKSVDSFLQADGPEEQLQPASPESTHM

Structure (SMILES) | IC50 [µM]
C[N+]1(C)Cc2c(Cl)cc(Cl)cc2C(c2ccccc2)C1 (centres unmarked) [Example 1, 6,8-Dichloro-2,2-dimethyl-4-phenyl-1,2,3,4-tetrahydroisoquinolinium, trifluoroacetate] | 0.23
CC(=O)Nc1ccc(C2C[N+](C)(C)Cc3c(Cl)cc(Cl)cc32)cc1 (centres unmarked) [Example 3a, 4-(4-Acetylaminophenyl)-6,8-dichloro-2,2-dimethyl-1,2,3,4-tetrahydroisoquinolinium iodide] | 0.67
C[N+]1(C)Cc2c(Cl)cc(Cl)cc2C(c2ccc(N)cc2)C1 (centres unmarked) [Example 4, 4-(4-Aminophenyl)-6,8-dichloro-2,2-dimethyl-1,2,3,4-tetrahydroisoquinolinium chloride, hydrochloride] | 0.03

More lines, in order of falling IC50, values ahead:

IC50 [µM] | Structure (SMILES)
0.9 | C[N+]1(C)Cc2c(Cl)cc(Cl)cc2C(c2ccc(S(N)(=O)=O)cc2)C1 (centres unmarked) [Example 2, 6,8-Dichloro-2,2-dimethyl-4-(4-sulfamoylphenyl)-1,2,3,4-tetrahydroisoquinolinium, Trifluoroacetate]
0.43 | CC(=O)Nc1ccc(C2C[N+](C)(C)Cc3c(Cl)cc(Cl)cc32)cc1 (single isomer, unassigned; (+)) [Example 3c, (+)-4-(4-Acetylaminophenyl)-6,8-dichloro-2,2-dimethyl-1,2,3,4-tetrahydroisoquinolinium chloride]
